Reference: patent publication US10463671B2, “Combination therapy for treating cancer” (Epizyme, Inc., priority 2013, dated 2019)

Columns and labels:
[1] = system: WSU-DLCL2 cells; test: Medium throughput combination proliferation assay (CellTiter-Glo, Chou-Talalay CI / potency shift)
[2] = system: glucocorticoid signaling genes in WSU-DLCL2 cells; test: RT2 Glucocorticoid Signaling PCR array; type: cell-based; conditions: WSU cell line, 4 days
[3] = system: glucocorticoid signaling genes in DOHH2 cells; test: RT2 Glucocorticoid Signaling PCR array; type: cell-based; conditions: vs DMSO; DOHH2, 4 days

Structure (SMILES): CCN(c1cc(-c2ccc(CN3CCOCC3)cc2)cc(C(=O)NCc2c(C)cc(C)[nH]c2=O)c1C)C1CCOCC1 [Compound 44]
- maximum reduction in Compound 44 IC50 with Prednisolone ([1]; WSU-DLCL2 (FIG. 3A)): 24 fold
- potency enhancement of Compound 44 at biologically relevant concentration of Dexamethasone ([1]; WSU-DLCL2, 100 nM Dexamethasone): 15 fold
- potency enhancement of Compound 44 at biologically relevant concentration of Prednisolone ([1]; WSU-DLCL2, 1 μM Prednisolone): 7 fold
- AK2 Ct Values [2]: 21.365
- ANXA4 Ct Values [2]: 24.659
- ARID5B Ct Values [2]: 26.126
- BCL6 Ct Values [2]: 20.795
- CEBPB Ct Values [2]: 26.770
- CREB3L4 Ct Values [2]: 24.392
- EHD3 Ct Values [2]: 24.270
- IL6R Ct Values [2]: 33.814
- MT2A Ct Values [2]: 23.499
- NFKBIA Ct Values [2]: 23.807
- PER2 Ct Values [2]: 24.837
- POU2F2 Ct Values [2]: 22.678
- RASA3 Ct Values [2]: 23.208
- RHOB Ct Values [2]: 27.234
- SLC22A5 Ct Values [2]: 26.640
- SNTA1 Ct Values [2]: 24.181
- SPSB1 Ct Values [2]: 26.952
- TNFAIP3 Ct Values [2]: 26.903
- TSC22D3 Ct Values [2]: 25.390
- ZFP36 Ct Values [2]: 25.541
- ZNF2B1 Ct Values [2]: 23.913
- RPLP0 Ct Values ([2]; housekeeping gene): 15.681
- HPRT1 ΔCT (B2M) ([2]; housekeeping gene, normalized to B2M): 3.108
- AMPD3 ΔCT (B2M) ([2]; normalized to B2M): 7.477
- GHRHR ΔCT (B2M) ([2]; normalized to B2M): 20.272
- GOT1 ΔCT (B2M) ([2]; normalized to B2M): 4.142
- SLC10A6 ΔCT (B2M) ([2]; normalized to B2M): 15.999
- SLC19A2 ΔCT (B2M) ([2]; normalized to B2M): 6.440
- SLC22A5 ΔCT (B2M) ([2]; normalized to B2M): 6.955
- ZNF2B1 ΔCT (B2M) ([2]; normalized to B2M): 4.228
- B2M ΔCT (B2M) ([2]; normalizer gene, normalized to B2M): 0.000
- BCL6 ΔΔCT ([2]; vs DMSO): −0.394
- CREB1 ΔΔCT ([2]; vs DMSO): 0.008
- CREB3L4 ΔΔCT ([2]; vs DMSO): −0.915
- CREB3 ΔΔCT ([2]; vs DMSO): −0.085
- DDIT4 ΔΔCT ([2]; vs DMSO): −0.060
- GOT1 ΔΔCT ([2]; vs DMSO): 0.708
- HNRPLL ΔΔCT ([2]; vs DMSO): −0.037
- IL1RN ΔΔCT ([2]; vs DMSO): −4.453
- PDP1 ΔΔCT ([2]; vs DMSO): −0.380
- PIK3R1 ΔΔCT ([2]; vs DMSO): 0.363
- POU2F2 ΔΔCT ([2]; vs DMSO): −0.680
- STAT5A ΔΔCT ([2]; vs DMSO): −0.307
- USP54 ΔΔCT ([2]; vs DMSO): 0.023
- VLDLR ΔΔCT ([2]; vs DMSO): 3.859
- FKBP5 ΔΔCT [3]: −0.032
- SPSB1 ΔΔCT [3]: −0.025
